Source: patent US10872410B2, “Methods and apparatus for assessing immune system activity and therapeutic efficacy” (Animantis, LLC, priority 2016, dated 2020)

Test system: cell population sets
Assay: Directional displacement of cell population sets measured with the immune platform (FIG. 7)
Type: cell-based
Conditions: conditions unstimulated, LPS, TNF, effect of presence of the stimulus
From the text: FIG. 7 is a graphical representation of the directional displacement of cell population sets as measured using an embodiment of the immune platform described herein. […]

| Substance | directional displacement of cell population sets |
| --- | --- |
| lipopolysaccharide [LPS] | greatly affected |
| tumor necrosis factor [TNF] | minimally affected |
